Measurements from patent US11767316B2, “Non-fused thiophene derivatives and their uses” (ENYO PHARMA, priority 2018, dated 2023).
Like-named read-outs stand apart in the source and are kept apart here.

Experiments:
NFκB = NFκB reporter assay (NanoLuciferase) in A549 cells, TNFα stimulation; format: cell-based; conditions: Homo sapiens, 4 ng/ml TNFα, 6 hours
From the text: Compounds of the present invention have been tested for their capacity to inhibit NFκB.
The NFκB reporter construct was made by cloning 5 NFκB responsive elements upstream of a NanoLuciferase reporter gene flanked by AAVS1 genomic sequences.
NFκB Responsive element fused with NanoLuciferase and SV40 late Poly(A) signal was amplified from pNL3.2-NFκB-Nluc (Promega) using NFKB-NLUC-F and NFKB-NLUC-R primers and inserted by Infusion (TaKaRa) in AAVS1 SA-2A-puro-pA donor plasmid (Hockemeyer et al, Nat Biotechnol. 2009, 27, 851-7) digested by Sal1. pCRISPR AAVS1-T2 expressing a guide RNA (gRNA) to target human AAVS1 (T2 target sequence) was constructed by inserting AAVS1-T2A hybridized primers in pLentiCRISPR v2-blast (Sanjana et al, Nat Methods. 2014, 11, 783-4) digested by Bsmb1.
A549 cells were transfected by the plasmids and puromycine selected for 5 days (1 μg mL-1). Then clones were obtained by limiting dilution and selected to maximize TNFα dependent NFkB-NanoLuciferase induction.
The reporter cells were seeded on a 96-well plate for overnight with DMEM including 10% FBS. Test compounds were added at varying concentrations. The cells then were treated with 4 ng/ml TNFα (Peprotech, ref E251) in DMEM+10% FBS. NanoGlo luciferase assay (Promega) was carried out 6 hours later. Luminescence was measured using a Spark 20M spectrofluorimeter (Tecan). Values were normalized to the luminescence measured in untreated cells.

[1] = test system: H1N1 (influenza A/New Caledonia/20/99); experiment: Antiviral effect on A549 cells infected with H1N1 (MUNANA neuraminidase readout); format: cell-based; conditions: H1N1 A/New Caledonia/20/99 at MOI 0.1, 48 h post-infection, MUNANA fluorescence, read-out: IC50
Protocol: The antiviral effect of the compounds of the invention have been tested on A549 cell lines infected with H1N1 (influenza A/New Caledonia/20/99).
Human A549 cells (80,000 cells/well in a 96 well plate) were treated with a range of concentration of test compounds and immediately infected by H1N1 A/New Caledonia/20/99 virus (clinical isolate) at MOI of 0.1 in DMEM/1% Penicillin/streptomycin supplemented with 0.25 μg/ml TPCK trypsin (Sigma) and incubated at 37° C. in 5% CO2. 48 h post-infection, supernatants (25 μl) were collected and transferred into a 96-well black flat-bottom plate, mixed with 25 μl PBS with Ca++/Mg++(Thermo Fisher) and 50 μl of 2′-(4-Methylumbelliferyl)-α-D-N-acetylneuraminic acid sodium salt hydrate stock-solution (20 μM, MUNANA, Sigma). Plates were incubated 1 h at 37° C. and reaction is stopped by adding 100 μl of Stop Solution (glycine 0.1 M pH10.7/25% ethanol). The amount of fluorescent product released by MUNANA hydrolysis (4-MU) was measured in a Tecan spectrophotometer with excitation and emission wavelengths of 365 and 450 nm respectively.

[2] = Influenza A virus, H1N1, A549, 48 h

SMILES	EC50 (NFκB) [nM]	IC50 [1, 2] [nM]	IC50 [1] [nM]
COCCNc1cccc(C(=O)Nc2scc(C3CCc4ccccc4C3)c2C(=O)O)c1 (centres unmarked) [#94]	90	2	–
O=C(Nc1scc(C2CCc3ccccc3C2)c1C(=O)O)c1ccc(N2C[C@@H]3C[C@H]2CO3)cc1 (some centres unmarked) [#140]	40	3.5	–
O=C(Nc1scc(C2CCc3ccccc3C2)c1C(=O)O)c1ccc(F)cc1 (centres unmarked) [#151]	90	–	2
COc1ccc(C(=O)Nc2scc(C3CCc4ccccc4C3)c2C(=O)O)cc1F (centres unmarked) [#162]	200	4	–
COCCCNc1ccc(C(=O)Nc2scc(C3CCc4ccccc43)c2C(=O)O)cc1 (centres unmarked) [#57]	80	76	–
O=C(Nc1scc(C2CCc3ccccc3C2)c1C(=O)O)c1ccc(OC(F)F)cc1 (centres unmarked) [#152]	160	–	2
O=C(Nc1sc(Cl)c(C2CCc3ccccc3C2)c1C(=O)O)c1ccccc1 (centres unmarked) [#17]	180	38.3	–
CC(C)Oc1ccc(C(=O)Nc2scc(C3CCc4ccccc4C3)c2C(=O)O)cc1 (centres unmarked) [#180]	50	0.3	–
O=C(Nc1scc(C2CCCc3ccccc32)c1C(=O)O)c1ccccc1 (centres unmarked) [#124]	910	237	–
CN1CCOc2cc(C(=O)Nc3scc(C4CCc5ccccc5C4)c3C(=O)O)ccc21 (centres unmarked) [#86]	40	2	–
O=C(O)c1c(C2CCc3ccccc3C2)csc1NC(=O)C12CC(F)(C1)C2 (centres unmarked) [#193]	–	315	–
O=C(Nc1scc(C2CCc3ccccc32)c1C(=O)O)c1ccccc1 (centres unmarked) [#19]	200	67	–
Cc1ccc(C(=O)Nc2scc(C3CCc4ccccc4C3)c2C(=O)O)cc1 (centres unmarked) [#166]	–	39	–
O=C(Nc1sc(Cl)c(C2CCc3ccccc32)c1C(=O)O)c1ccccc1 (centres unmarked) [#49]	–	130	–
O=C(Nc1scc(C2CCc3ccccc3C2)c1C(=O)O)c1cccc(F)c1 (centres unmarked) [#169]	–	162	–
